Source: patent US20260272891A1, “TREATMENT OF AUTOIMMUNE DISEASES AND CANCER WITH PROTEASE INHIBITORS” (Lundquist Institute for Biomedical Innovation at …, priority 2023, published 2026)

How the values were obtained:
[1] = tested on: Monocytes stimulated by LPS; assay: ELISA cytokines, monocytes stimulated by LPS; assay type: cell-based, human; conditions: for IL-16 levels / IL-6 / IL-10 / IL-23 / TNF-α: 5000 ng/mL, LPS; for IL-6 / IL-10 / IL-23 / TNF-α: donors D186, D317, D93
Description: For all experiments, peripheral blood mononuclear cells (PBMC) were isolated either from healthy blood donors as above or purchased from HemaCare as Leukopaks (D186, D317 and D93). PBMC were purified by Ficoll-Hypaque gradient centrifugation (Pharmacia, Piscataway, NJ) and stimulated after freshly isolated as described, or cryopreserved in cryoprotective medium consisting of 90% fetal bovine serum (FBS) in combination with 10% dimethyl sulfoxide (DMSO) at 20 to 30 million cells per vial, and thawed for later stimulation as described. For studies with enriched monocytes, PBMC were cultured in 1% FBS in RPMI 1640, and adhered to sterile plastic tissue culture plates for 1-2 hours; followed by washing off nonadherent PBMC. Remaining adherent monocytes were stimulated as described.
Isolated PBMCs were washed once in 1% FCS RPMI and re-suspended in RPMI-1640 (ThermoFisher Scientific) in 1-2% FCS RPMI. For monocyte isolation, 2×10^6 PBMCs per well were plated in 24-well tissue culture treated plate (ThermoFisher Scientific) at 1 ml each well. Monocytes were allowed to adhere in a 5% CO2 container at 37° C. for 2 hr. Nonadherent cells were removed by thorough washing 2 times with 1% FCS RPMI-1640.

PBMC stimulated by LPS = assay: ELISA cytokines, frozen PBMCs stimulated by LPS; assay type: cell-based, human; conditions: for production of LPS-stimulated IL-6 / production of LPS-stimulated IL-10 / production of LPS-stimulated IL-23 / production of LPS-stimulated TNF-α: dose response, three concentrations, donors D186, D317, D93, versus LPS alone
Protocol: PBMC were purified by Ficoll-Hypaque gradient centrifugation (Pharmacia, Piscataway, NJ) and stimulated after freshly isolated as described, or cryopreserved in cryoprotective medium consisting of 90% fetal bovine serum (FBS) in combination with 10% dimethyl sulfoxide (DMSO) at 20 to 30 million cells per vial, and thawed for later stimulation as described.
Cytokine dose-response analysis was performed using linear regression model testing dose (ordinal variable) and adjusting for the individual donors.

CD3+ T cells = assay: Flow cytometry, Propidium iodide/CD3 staining to verify drug toxicity; conditions: for toxicity in gated CD3+ T cells compared to DMSO treatment only: three concentrations, donors D186, D317, D93
4T1 cells = assay: Killing of 4T1 cells; assay type: cell-based, mouse
[2] = tested on: CD14+ cells for monocytes; assay: Flow cytometry, Propidium iodide/CD14 staining to verify drug toxicity
[3] = tested on: T cells activated using beads; assay: ELISA cytokines, T cell activation with beads; assay type: cell-based, human; conditions: 5000 ng/ml; for IFN-γ production / IL10 production / IL-4 levels / TNF-α production: activated cells (Bead); for IL-2 production: activated cells, compared to negative control
Protocol: Conditioned media were tested undiluted, or diluted 1:3 and 1:9 to determine tumor necrosis factor (TNF) α concentration.

PBMCs = assay: Flow cytometry, FSC versus SSC gating, percentage of PBMCs; conditions: for percentage of PBMCs (FSC versus SSC gating): 24 hrs
SARS-COV-2 Mpro = SARS-COV-2 Mpro (Severe acute respiratory syndrome coronavirus 2, UniProt P0DTD1); conditions: cited from earlier work
T cells = conditions: cells from mice; cited from earlier work

CC(C)(C)[C@H](NC(=O)C(F)(F)F)C(=O)N1C[C@H]2[C@@H]([C@H]1C(=O)N[C@H](C#N)C[C@@H]1CCNC1=O)C2(C)C [NMV, nirmatrelvir]
IL-16 levels ([1]; donors 317 and 93): increasing levels | IL-6 [1]: decrease | IL-10 [1]: decrease | IL-23 [1]: decrease | TNF-α [1]: decrease | IL-23 levels (PBMC stimulated by LPS; 5000 ng/ml, LPS, three donors): Two of three donors already had no detectable IL-23 levels | production of LPS-stimulated IL-6 (PBMC stimulated by LPS): diminished | production of LPS-stimulated IL-10 (PBMC stimulated by LPS): diminished | production of LPS-stimulated IL-23 (PBMC stimulated by LPS): diminished | production of LPS-stimulated TNF-α (PBMC stimulated by LPS): diminished | cytokines except IL-1β (IL-6, IL-10, IL-23, TNF-α) (PBMC stimulated by LPS; frozen PBMCs stimulated with LPS): decrease | cells double positive for Propidium iodide (PI) and CD3 (dead cells) (CD3+ T cells; Donor 93, 1250 ng): 19.2% | cells double positive for Propidium iodide (PI) and CD3 (dead cells) (CD3+ T cells; Donor 93, 2500 ng): 17.1% | cells double positive for Propidium iodide (PI) and CD3 (dead cells) (CD3+ T cells; Donor 93, 5000 ng): 16.0% | cells double positive for Propidium iodide (PI) and CD3 (dead cells) (CD3+ T cells; Donor 186, 1250 ng): 29.9% | cells double positive for Propidium iodide (PI) and CD3 (dead cells) (CD3+ T cells; Donor 186, 2500 ng): 31.1% | cells double positive for Propidium iodide (PI) and CD3 (dead cells) (CD3+ T cells; Donor 186, 5000 ng): 28.5% | cells double positive for Propidium iodide (PI) and CD3 (dead cells) (CD3+ T cells; Donor 317, 1250 ng): 17.9% | cells double positive for Propidium iodide (PI) and CD3 (dead cells) (CD3+ T cells; Donor 317, 2500 ng): 16.9% | cells double positive for Propidium iodide (PI) and CD3 (dead cells) (CD3+ T cells; Donor 317, 5000 ng): 17.1% | toxicity in gated CD3+ T cells compared to DMSO treatment only (CD3+ T cells): similar | killing of 4T1 cells (4T1 cells): killed 4T1 cells in a dose responsive manner | cells double positive for Propidium iodide (PI) and CD14 (dead cells) ([2]; Donor 93, 1250 ng): 0.90% | cells double positive for Propidium iodide (PI) and CD14 (dead cells) ([2]; Donor 93, 2500 ng): 0.74% | cells double positive for Propidium iodide (PI) and CD14 (dead cells) ([2]; Donor 93, 5000 ng): 0.64% | cells double positive for Propidium iodide (PI) and CD14 (dead cells) ([2]; Donor 186, 1250 ng): 0.75% | cells double positive for Propidium iodide (PI) and CD14 (dead cells) ([2]; Donor 186, 2500 ng): 1.28% | cells double positive for Propidium iodide (PI) and CD14 (dead cells) ([2]; Donor 186, 5000 ng): 0.74% | cells double positive for Propidium iodide (PI) and CD14 (dead cells) ([2]; Donor 317, 1250 ng): 0.37% | cells double positive for Propidium iodide (PI) and CD14 (dead cells) ([2]; Donor 317, 2500 ng): 0.31% | cells double positive for Propidium iodide (PI) and CD14 (dead cells) ([2]; Donor 317, 5000 ng): 0.32% | IFN-γ production [3]: lower | IL10 production [3]: lower | IL-4 levels [3]: lower when compared to all groups with activated cells | TNF-α production [3]: low | TNF-α production ([3]; listed as NMR): lower | IL-2 production [3]: elevated | percentage of PBMCs (FSC versus SSC gating) (PBMCs; Donor 93, 1250 ng): 74.8% | percentage of PBMCs (FSC versus SSC gating) (PBMCs; Donor 93, 2500 ng): 76.2% | percentage of PBMCs (FSC versus SSC gating) (PBMCs; Donor 93, 5000 ng): 54.6% | percentage of PBMCs (FSC versus SSC gating) (PBMCs; Donor 186, 1250 ng): 52.8% | percentage of PBMCs (FSC versus SSC gating) (PBMCs; Donor 186, 2500 ng): 44.8% | percentage of PBMCs (FSC versus SSC gating) (PBMCs; Donor 186, 5000 ng): 47.7% | percentage of PBMCs (FSC versus SSC gating) (PBMCs; Donor 317, 1250 ng): 55.4% | percentage of PBMCs (FSC versus SSC gating) (PBMCs; Donor 317, 2500 ng): 64.4% | percentage of PBMCs (FSC versus SSC gating) (PBMCs; Donor 317, 5000 ng): 55.9% | Peripheral Blood Mononuclear Cells' viability (PBMCs; all different concentrations, three donors): Do Not Affect

CC(C)c1nc(CN(C)C(=O)N[C@H](C(=O)N[C@@H](Cc2ccccc2)C[C@H](O)[C@H](Cc2ccccc2)NC(=O)OCc2cncs2)C(C)C)cs1 [RTV, ritonavir]
IL-16 levels ([1]; donor186): Slightly decreased | IL-16 levels ([1]; donors 317 and 93): increasing levels | IL-6 [1]: decrease | IL-10 [1]: decrease | IL-23 [1]: decrease | TNF-α [1]: decrease | IL-1β ([1]; monocytes, 5000 ng/ml): decreased | production of LPS-stimulated IL-6 (PBMC stimulated by LPS): no effect | production of LPS-stimulated IL-10 (PBMC stimulated by LPS): no effect | production of LPS-stimulated IL-23 (PBMC stimulated by LPS): no effect | production of LPS-stimulated TNF-α (PBMC stimulated by LPS): no effect | cells double positive for Propidium iodide (PI) and CD3 (dead cells) (CD3+ T cells; Donor 93, 1250 ng): 19.5% | cells double positive for Propidium iodide (PI) and CD3 (dead cells) (CD3+ T cells; Donor 93, 2500 ng): 19.8% | cells double positive for Propidium iodide (PI) and CD3 (dead cells) (CD3+ T cells; Donor 93, 5000 ng): 19.5% | cells double positive for Propidium iodide (PI) and CD3 (dead cells) (CD3+ T cells; Donor 186, 1250 ng): 27.9% | cells double positive for Propidium iodide (PI) and CD3 (dead cells) (CD3+ T cells; Donor 186, 2500 ng): 28.9% | cells double positive for Propidium iodide (PI) and CD3 (dead cells) (CD3+ T cells; Donor 186, 5000 ng): 28.6% | cells double positive for Propidium iodide (PI) and CD3 (dead cells) (CD3+ T cells; Donor 317, 1250 ng): 18.1% | cells double positive for Propidium iodide (PI) and CD3 (dead cells) (CD3+ T cells; Donor 317, 2500 ng): 17.5% | cells double positive for Propidium iodide (PI) and CD3 (dead cells) (CD3+ T cells; Donor 317, 5000 ng): 17.8% | toxicity in gated CD3+ T cells compared to DMSO treatment only (CD3+ T cells): similar | activity against SARS-COV-2 Mpro (SARS-COV-2 Mpro): lacks activity | killing of 4T1 cells (4T1 cells): killed 4T1 cells in a dose responsive manner | cells double positive for Propidium iodide (PI) and CD14 (dead cells) ([2]; Donor 93, 1250 ng): 0.90% | cells double positive for Propidium iodide (PI) and CD14 (dead cells) ([2]; Donor 93, 2500 ng): 1.12% | cells double positive for Propidium iodide (PI) and CD14 (dead cells) ([2]; Donor 93, 5000 ng): 0.81% | cells double positive for Propidium iodide (PI) and CD14 (dead cells) ([2]; Donor 186, 1250 ng): 2.14% | cells double positive for Propidium iodide (PI) and CD14 (dead cells) ([2]; Donor 186, 2500 ng): 1.71% | cells double positive for Propidium iodide (PI) and CD14 (dead cells) ([2]; Donor 186, 5000 ng): 1.71% | cells double positive for Propidium iodide (PI) and CD14 (dead cells) ([2]; Donor 317, 1250 ng): 0.42% | cells double positive for Propidium iodide (PI) and CD14 (dead cells) ([2]; Donor 317, 2500 ng): 0.38% | cells double positive for Propidium iodide (PI) and CD14 (dead cells) ([2]; Donor 317, 5000 ng): 0.44% | IFN-γ production [3]: higher levels | IL10 production [3]: higher | IL-4 levels [3]: higher | TNF-α production [3]: high levels | IL-2 production [3]: elevated | percentage of PBMCs (FSC versus SSC gating) (PBMCs; Donor 93, 1250 ng): 60.4% | percentage of PBMCs (FSC versus SSC gating) (PBMCs; Donor 93, 2500 ng): 62.9% | percentage of PBMCs (FSC versus SSC gating) (PBMCs; Donor 93, 5000 ng): 55.9% | percentage of PBMCs (FSC versus SSC gating) (PBMCs; Donor 186, 1250 ng): 48.0% | percentage of PBMCs (FSC versus SSC gating) (PBMCs; Donor 186, 2500 ng): 51.3% | percentage of PBMCs (FSC versus SSC gating) (PBMCs; Donor 186, 5000 ng): 44.9% | percentage of PBMCs (FSC versus SSC gating) (PBMCs; Donor 317, 1250 ng): 61.3% | percentage of PBMCs (FSC versus SSC gating) (PBMCs; Donor 317, 2500 ng): 56.2% | percentage of PBMCs (FSC versus SSC gating) (PBMCs; Donor 317, 5000 ng): 57.4% | IL2, IFN-gamma and TNF-alpha secretion (T cells): decreasing
